Tests used:
Acetylcholinesterase [1] = molecular target: T1, Acetylcholinesterase (Electrophorus electricus, UniProt O42275)
Description: Inhibition of electric eel AChE using acetylcholine as substrate preincubated for 5 mins prior to substrate addition measured after 2 mins by Ellman's method

Cholinesterase [2] = molecular target: T2, Cholinesterase (Equus caballus, UniProt P81908)
Description: Inhibition of equine serum BChE using acetylcholine as substrate preincubated for 5 mins prior to substrate addition measured after 2 mins by Ellman's method

Acetylcholinesterase [3] = molecular target: T1, Acetylcholinesterase; experiment: Mixed-type inhibition of electric eel AChE by Lineweaver Burk reciprocal plot analysis in presence of acetylcholine
Cholinesterase [4] = molecular target: T2, Cholinesterase; experiment: Competitive inhibition of equine serum BChE by Lineweaver Burk reciprocal plot analysis in presence of acetylcholine
[5] = buffer, pH 7.4, 4 h
Description: Chemical stability of the compound in phosphate buffer assessed as nitrite release after 4 hrs at pH 7.4 by Griess method

[6] = Cytotoxicity against Wistar rat primary cortical neurons at 1 uM after 24 hrs by MTT assay; assay type: cell-based; settings: cerebral cortex neuron

T1 sequence (O42275 whole entry): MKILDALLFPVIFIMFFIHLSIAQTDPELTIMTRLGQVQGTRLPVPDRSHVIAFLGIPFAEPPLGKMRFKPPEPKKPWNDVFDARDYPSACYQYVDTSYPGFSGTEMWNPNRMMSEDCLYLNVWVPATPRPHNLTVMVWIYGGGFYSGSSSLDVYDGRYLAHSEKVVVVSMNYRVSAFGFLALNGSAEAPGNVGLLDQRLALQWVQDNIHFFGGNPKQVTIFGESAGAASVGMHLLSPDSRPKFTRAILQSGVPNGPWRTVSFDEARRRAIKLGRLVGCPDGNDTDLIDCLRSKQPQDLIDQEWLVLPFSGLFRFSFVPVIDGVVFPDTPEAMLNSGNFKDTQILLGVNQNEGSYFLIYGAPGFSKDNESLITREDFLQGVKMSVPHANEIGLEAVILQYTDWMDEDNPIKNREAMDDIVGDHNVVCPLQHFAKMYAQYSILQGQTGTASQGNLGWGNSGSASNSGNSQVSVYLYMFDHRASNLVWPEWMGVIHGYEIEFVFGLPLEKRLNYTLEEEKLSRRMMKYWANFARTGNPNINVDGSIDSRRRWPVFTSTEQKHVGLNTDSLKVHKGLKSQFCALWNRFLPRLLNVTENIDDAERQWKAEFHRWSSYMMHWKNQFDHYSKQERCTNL
T2 sequence (P81908 whole entry): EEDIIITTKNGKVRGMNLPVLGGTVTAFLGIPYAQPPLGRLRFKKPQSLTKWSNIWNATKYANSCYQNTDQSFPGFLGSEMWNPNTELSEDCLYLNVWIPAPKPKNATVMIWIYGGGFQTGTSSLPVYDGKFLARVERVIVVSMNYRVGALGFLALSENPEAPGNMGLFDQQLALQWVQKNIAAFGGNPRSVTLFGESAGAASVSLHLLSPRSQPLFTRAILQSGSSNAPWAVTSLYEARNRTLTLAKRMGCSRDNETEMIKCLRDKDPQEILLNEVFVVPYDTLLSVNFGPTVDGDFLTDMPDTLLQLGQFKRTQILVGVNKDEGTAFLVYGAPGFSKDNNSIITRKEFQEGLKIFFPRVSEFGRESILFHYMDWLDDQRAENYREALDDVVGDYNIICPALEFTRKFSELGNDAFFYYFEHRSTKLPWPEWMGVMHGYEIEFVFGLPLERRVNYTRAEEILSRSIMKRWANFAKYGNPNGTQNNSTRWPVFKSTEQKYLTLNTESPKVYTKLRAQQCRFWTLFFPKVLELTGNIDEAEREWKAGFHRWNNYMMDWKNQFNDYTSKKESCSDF

Which IC50 (Acetylcholinesterase [1]) does the source give for `CC(C(=O)NCCCCCCNc1c2c(nc3ccccc13)CCCC2)c1ccc(-c2ccccc2)c(F)c1` (configuration not stated) here?
Its IC50 is 19.3 nM.

And the IC50 (Cholinesterase [2])?
Its IC50 is 3.7 nM.

With `CC(C(=O)NCCCCCCCCNc1c2c(nc3ccccc13)CCCC2)c1ccc(-c2ccccc2)c(F)c1` (configuration not stated) as the molecule, how does the IC50 (Acetylcholinesterase [1]) read?
Its IC50 is 34.5 nM.

And the IC50 (Cholinesterase [2])?
Its IC50 is 2.1 nM.

For `CC(C(=O)NCCCCCCNc1c2c(nc3ccccc13)CCCC2)c1ccc(-c2ccc(OCCO[N+](=O)[O-])cc2)c(F)c1` (configuration not stated), which Ki (Acetylcholinesterase [3]) is on record?
The Ki was 16.1 nM.

What about the Ki (Cholinesterase [4]) of the same molecule?
The Ki was 1.7 nM.

What about the IC50 (Acetylcholinesterase [1]) of the same molecule?
The IC50 was 9.1 nM.

What about the IC50 (Cholinesterase [2]) of the same molecule?
The IC50 was 2.5 nM.

And the Drug metabolism [5]?
The Drug metabolism was 0.348 µg/mL.

Which IC50 (Acetylcholinesterase [1]) does the source give for `CC(C(=O)NCCCCCCNc1c2c(nc3ccccc13)CCCC2)c1ccc(-c2ccc(OCCCO[N+](=O)[O-])cc2)c(F)c1` (configuration not stated) here?
The IC50 was 18.7 nM.

And the IC50 (Cholinesterase [2])?
The IC50 was 2.4 nM.

And the Drug metabolism [5]?
The Drug metabolism was 0.353 µg/mL.

Which IC50 (Acetylcholinesterase [1]) does the source give for `CC(C(=O)NCCCCCCNc1c2c(nc3ccccc13)CCCC2)c1ccc(-c2ccc(OCCCCO[N+](=O)[O-])cc2)c(F)c1` (configuration not stated) here?
The IC50 was 27.4 nM.

What about the IC50 (Cholinesterase [2]) of the same molecule?
The IC50 was 1.3 nM.

And the Drug metabolism [5]?
Its Drug metabolism is 0.36 µg/mL.

For `CC(C(=O)NCCCCCCNc1c2c(nc3ccccc13)CCCC2)c1ccc(-c2ccc(OCCCCCCO[N+](=O)[O-])cc2)c(F)c1` (configuration not stated), which IC50 (Acetylcholinesterase [1]) is on record?
The IC50 was 31.1 nM.

What about the Activity [6] of the same molecule?
Its Activity is “Non-toxic”.

What about the IC50 (Cholinesterase [2]) of the same molecule?
Its IC50 is 0.6 nM.

And the Drug metabolism [5]?
The Drug metabolism was 0.283 µg/mL.

For `CC(C(=O)NCCCCCCCCNc1c2c(nc3ccccc13)CCCC2)c1ccc(-c2ccc(OCCO[N+](=O)[O-])cc2)c(F)c1` (configuration not stated), which IC50 (Acetylcholinesterase [1]) is on record?
The IC50 was 12.5 nM.

What about the IC50 (Cholinesterase [2]) of the same molecule?
The IC50 was 1 nM.

And the Drug metabolism [5]?
The Drug metabolism was 0.565 µg/mL.

For `CC(C(=O)NCCCCCCCCNc1c2c(nc3ccccc13)CCCC2)c1ccc(-c2ccc(OCCCO[N+](=O)[O-])cc2)c(F)c1` (configuration not stated), which IC50 (Acetylcholinesterase [1]) is on record?
The IC50 was 30.6 nM.

What about the IC50 (Cholinesterase [2]) of the same molecule?
The IC50 was 1.6 nM.

And the Drug metabolism [5]?
The Drug metabolism was 0.353 µg/mL.

What does the source list for `CC(C(=O)NCCCCCCCCNc1c2c(nc3ccccc13)CCCC2)c1ccc(-c2ccc(OCCCCO[N+](=O)[O-])cc2)c(F)c1` (configuration not stated)?
IC50 (Acetylcholinesterase [1]): 70.9 nM; IC50 (Cholinesterase [2]): 1.3 nM; Drug metabolism [5]: 0.36 µg/mL

Which IC50 (Acetylcholinesterase [1]) does the source give for `CC(C(=O)NCCCCCCCCNc1c2c(nc3ccccc13)CCCC2)c1ccc(-c2ccc(OCCCCCCO[N+](=O)[O-])cc2)c(F)c1` (configuration not stated) here?
Its IC50 is 226 nM.

What about the IC50 (Cholinesterase [2]) of the same molecule?
Its IC50 is 1.5 nM.

What about the Drug metabolism [5] of the same molecule?
Its Drug metabolism is 0.34 µg/mL.

With `O=[N+]([O-])O[C@@H]1CO[C@H]2[C@@H]1OC[C@@H]2O` [ISOSORBIDE MONONITRATE] as the molecule, how does the Drug metabolism [5] read?
Its Drug metabolism is 0.412 µg/mL.
